The source of these data is patent US12404289B2 (Gilead Sciences, Inc., priority 2020, dated 2025).

Like-named read-outs stand apart in the source and are kept apart here. Where only a bound is given, the exact number is not on record here.

What all share (assay type): cell-based
The subject of data set [1] is Respiratory syncytial virus (RSV) strain A2. Put plainly: RSV antiviral assay (HEp-2, 96 well).
The nature of data set [2]: CC50 assay (cytopathology in HEp-2 cells). The note with it: human, HEp-2 cells, 4 days, CellTiter-Glo; Table 2; read-out: RSV CC50. The method, then:
The cytopathology of compounds in HEp-2 cells is determined in the following manner. HEp-2 cells are suspended in DMEM+GlutaMAX (supplemented with 10% FBS and 1% Penicillin/Streptomycin) and seeded into 96 well plates (3×10^3/well). After a 4-hour incubation at 37° C.+5% CO2, three-fold serial dilutions of compounds are added to each well using an HP D300e digital dispenser. The cells are then incubated for 4 days at 37° C. and 5% CO2. The final volume in each well is 200 μL. Untreated wells are included as controls for 100% cell viability, while compounds treated with 5 uM puromycin are included as controls for 0% viability. Following the incubation, 100 μL of culture supernatant is removed from each well and replaced with 100 μL of CellTiter-Glo reagent (Promega, Madison, WI, Cat #G7573). The plates are then rocked for 2 minutes followed by a 10-minute incubation at 25° C. Compound-induced cytopathic effect is then assessed by measuring luminescence signal using and Envision plate reader. Values are normalized to the untreated DMSO and puromycin-treated controls (as 100% and 0% viability, respectively) and data is fit using non-linear regression analysis using XLfit4. The CC50 value for each compound is then determined as the concentration reducing cell viability by 50%.

The subject of data set [3] is Respiratory syncytial virus (RSV) strain A2. In words: Hep-2 RSV2 384-well assay (EC50-HEP2-384). The note with it: HEp-2 cells, RSV A2, MOI=4, 4 days.
The next data set concerns SARS-CoV-2. In words: SARS-CoV-2 antiviral assay (A549-hACE2, Nano luciferase). Particulars: A549-hACE2 cells, SARS-CoV2-Nano, MOI 0.025, 48 h, Table 4, read-out: EC50 SARS CoV2.
Data set [4] has as its system Respiratory syncytial virus recombinant with luciferase (RSV-Luc5). Put plainly: microbe, parasite or virus in culture.
The subject of data set [5] is Recombinant respiratory syncytial virus expressing the firefly luciferase protein (RSV-Fluc). In words: microbe, parasite or virus in culture. The note with it: Table 4.
Where [6] appears, read: human respiratory syncytial virus, HEp-2, 96 h, read-out: EC50-RSV-HEP-2-96, HEp-2 cells, RSV A2, MOI=4, 4 days, 96 well, Table 2.
Setting [7] is: read-out: EC50 RSVFluc NHBE 96, NHBE cells, RSV-Fluc, MOI of 0.1, three days, 96 well.
The mark [8] stands for this setting: Severe acute respiratory syndrome coronavirus 2, 48 h.
Setting [9] is: read-out: EC50 RSVFluc-Hep2 384, HEp-2 cells, RSV-Luc5, MOI=0.5, 3 days, 384 well, Table 3.
Where [10] appears, read: human respiratory syncytial virus, NHBE, 72 h, read-out: EC50 RSVFluc NHBE 96, NHBE cells, RSV-Fluc, MOI of 0.1, three days, 96 well.
[11] abbreviates: human respiratory syncytial virus, HEp-2, 96 h, Table 3.
[12] abbreviates: human respiratory syncytial virus, HEp-2, 72 h, read-out: EC50 RSVFluc-Hep2 384, HEp-2 cells, RSV-Luc5, MOI=0.5, 3 days, 384 well, Table 3.
The mark [13] stands for this setting: read-out: EC50 RSV HEP2 96, HEp-2 cells, RSV A2, MOI=4, 4 days, 96 well, Table 3.

One may read the EC50 as the concentration at which the effect is half-maximal. The CC50 is the concentration giving 50% cytotoxicity. Regarding `COC(=O)[C@H](C)N[P@](=O)(OC[C@H]1O[C@@](C#N)(c2ccc3c(N)ncnn23)[C@H](O)[C@@H]1O)Oc1ccccc1`, the EC50 in data set [1] (setting [6]) was found to be 144 nM. Besides, the CC50 at 4 days in data set [2] worked out at 48500 nM.

`CC(C)OC(=O)[C@H](C)N[P@](=O)(OC[C@H]1O[C@@](C#N)(c2ccc3c(N)ncnn23)[C@H](O)[C@@H]1O)Oc1ccccc1`: the EC50 in data set [1] (setting [6]) is 364 nM. The CC50 at 4 days in data set [2] was > 9600 nM.

`CCOC(=O)[C@H](C)NP(=O)(OC[C@H]1O[C@@](C#N)(c2ccc3c(N)ncnn23)[C@H](O)[C@@H]1O)Oc1ccccc1` (some centres unmarked): in data set [1] (setting [6]), the EC50 is 296 nM. For the same molecule, in data set [2], the CC50 at 4 days was > 70000 nM.

As to `C[C@H](NP(=O)(OC[C@H]1O[C@@](C#N)(c2ccc3c(N)ncnn23)[C@H](O)[C@@H]1O)Oc1ccccc1)C(=O)OC1CCC1` (some centres unmarked), in data set [1] (setting [6]), the EC50 is 75.1 nM. Besides, the CC50 at 4 days in data set [2] came to 34200 nM.

Turning to `CCC(CC)COC(=O)[C@H](C)NP(=O)(OC[C@H]1O[C@@](C#N)(c2ccc3c(N)ncnn23)[C@H](O)[C@@H]1O)Oc1ccc(C(C)(C)C)cc1` (single isomer, unassigned) [Example 13b], the EC50 in data set [3] (Table 1) was 33.4 nM; in the data set with SARS-CoV-2, 174 nM; in data set [4] (read-out: EC50 RSVFluc-Hep2 384, HEp-2 cells, RSV-Luc5, MOI=0.5, 3 days, 384 well, One-Glo, Table 1) it was 26.7 nM; in data set [5] (setting [7]), 6.86 nM.

Regarding `CC(=O)O[C@H]1[C@@H](OC(C)=O)[C@](C#N)(c2ccc3c(N)ncnn23)O[C@@H]1COP(=O)(N[C@@H](C)C(=O)OC1CC2(CCC2)C1)Oc1ccccc1` (single isomer, unassigned) [Example 45a], the EC50 in data set [3] (Table 3) was 60.4 nM; with SARS-CoV-2 (setting [8]), 72.8 nM; in data set [4] (setting [9]) it was 22.7 nM; in data set [5] (setting [10]), 7.29 nM.

`CC(=O)O[C@H]1[C@@H](OC(C)=O)[C@](C#N)(c2ccc3c(N)ncnn23)O[C@@H]1COP(=O)(N[C@@H](C)C(=O)OC1CC2(CCC2)C1)Oc1ccccc1` (single isomer, unassigned) [Example 45b]: the EC50 in data set [3] (Table 3) stood at 23.9 nM; in the data set on SARS-CoV-2, 56.9 nM; in data set [4] (setting [9]) it was 6.87 nM; in data set [5] (setting [7]), 10.3 nM.

As for `CCC(CC)COC(=O)[C@H](C)NP(=O)(OC[C@H]1O[C@@](C#N)(c2ccc3c(N)ncnn23)[C@H](OC(C)=O)[C@@H]1OC(C)=O)Oc1cccc2ccccc12` (single isomer, unassigned) [Example 78b], the EC50 in data set [3] (setting [11]) was found to be 75.6 nM; with SARS-CoV-2, 20 nM; in data set [4] (setting [12]), 33.8 nM; in data set [1] (setting [13]), 21 nM; in data set [5] (setting [10]), 5.67 nM.

Regarding `CC(=O)O[C@H]1[C@@H](OC(C)=O)[C@](C#N)(c2ccc3c(N)ncnn23)O[C@@H]1COP(=O)(N[C@@H](C)C(=O)OC1CC2(CCC2)C1)Oc1cccc2ccccc12` (single isomer, unassigned) [Example 83b], the EC50 was 27.9 nM in data set [3] (setting [11]); 32.8 nM with SARS-CoV-2; 20.4 nM in data set [4] (setting [9]); 7.32 nM in data set [1] (setting [13]); 7.12 nM in data set [5] (setting [7]).

`CC(=O)O[C@H]1[C@@H](OC(C)=O)[C@](C#N)(c2ccc3c(N)ncnn23)O[C@@H]1COP(=O)(N[C@@H](C)C(=O)OC1CC(C)(C)C1)Oc1ccc(C(C)(C)C)cc1` (single isomer, unassigned) [Example 96a]: the EC50 in data set [3] (setting [11]) stood at 26.5 nM; with SARS-CoV-2 (setting [8]), 198 nM; in data set [4] (setting [12]), 21.2 nM; in data set [5] (setting [7]), 8.53 nM.

In the case of `CC(=O)O[C@H]1[C@@H](OC(C)=O)[C@](C#N)(c2ccc3c(N)ncnn23)O[C@@H]1COP(=O)(N[C@@H](C)C(=O)OC1CC(C)(C)C1)Oc1ccc(C(C)(C)C)cc1` (single isomer, unassigned) [Example 96b], the EC50 was 27.9 nM in data set [3] (Table 3), 276 nM in the data set with SARS-CoV-2, 22.5 nM in data set [4] (setting [9]) and 25.1 nM in data set [5] (setting [7]).

For `CC(=O)O[C@H]1[C@@H](OC(C)=O)[C@](C#N)(c2ccc3c(N)ncnn23)O[C@@H]1COP(=O)(N[C@@H](C)C(=O)OCC1CC1)Oc1ccc(C(C)(C)C)cc1` (single isomer, unassigned) [Example 102a], the EC50 in data set [3] (setting [11]) was 32 nM; with SARS-CoV-2 (setting [8]), 155 nM; in data set [4] (setting [9]), 8.68 nM; in data set [5] (setting [10]), 8.46 nM.

On to `C[C@H](NP(=O)(OC[C@H]1O[C@@](C#N)(c2ccc3c(N)ncnn23)[C@H](O)[C@@H]1O)Oc1ccccc1)C(=O)OC1CC2(CCC2)C1` (stereo partly drawn) [Example 44, spiro[3.3]heptan-2-yl ((((2R,3S,4R,5R)-5-(4-aminopyrrolo[2,1-f][1,2,4]triazin-7-yl)-5-cyano-3,4-dihydroxytetrahydrofuran-2-yl)methoxy)(phenoxy)phosphoryl)-L-alaninate], for which the EC50 in data set [3] (setting [11]) was found to be 56 nM; in the data set on SARS-CoV-2 (setting [8]), 104 nM; in data set [4] (setting [12]) it was 18.3 nM; in data set [5] (setting [10]), 9.47 nM.

Consider `CC(=O)O[C@H]1[C@@H](OC(C)=O)[C@](C#N)(c2ccc3c(N)ncnn23)O[C@@H]1COP(=O)(N[C@@H](C)C(=O)OC1CC2(CCC2)C1)Oc1ccccc1` (stereo partly drawn) [Example 45, (2R,3R,4R,5R)-2-(4-aminopyrrolo[2,1-f][1,2,4]triazin-7-yl)-2-cyano-5-((((((S)-1-oxo-1-(spiro[3.3]heptan-2-yloxy)propan-2-yl)amino)(phenoxy)phosphoryl)oxy)methyl)tetrahydrofuran-3,4-diyl Diacetate], for which the EC50 was found to be 31.1 nM in data set [3] (setting [11]), 105 nM with SARS-CoV-2 (setting [8]), 19 nM in data set [4] (setting [12]) and 5.29 nM in data set [5] (setting [10]).

For `CC(C)C(=O)O[C@H]1[C@@H](OC(=O)C(C)C)[C@](C#N)(c2ccc3c(N)ncnn23)O[C@@H]1COP(=O)(N[C@@H](C)C(=O)OC1CC2(CCC2)C1)Oc1ccccc1` (stereo partly drawn) [Example 46, (2R,3R,4R,5R)-2-(4-aminopyrrolo[2,1-f][1,2,4]triazin-7-yl)-2-cyano-5-((((((S)-1-oxo-1-(spiro[3.3]heptan-2-yloxy)propan-2-yl)amino)(phenoxy)phosphoryl)oxy)methyl)tetrahydrofuran-3,4-diyl bis(2-methylpropanoate)], the EC50 amounted to 52.3 nM in data set [3] (setting [11]), 237 nM with SARS-CoV-2 (setting [8]), 19.3 nM in data set [4] (setting [12]) and 7.79 nM in data set [5] (setting [10]).

Regarding `CC(=O)O[C@H]1[C@@H](OC(C)=O)[C@](C#N)(c2ccc3c(N)ncnn23)O[C@@H]1COP(=O)(N[C@@H](C)C(=O)OC1CC(C)(C)C1)Oc1ccc(C(C)(C)C)cc1` (stereo partly drawn) [Example 96, (2R,3R,4R,5R)-2-(4-aminopyrrolo[2,1-f][1,2,4]triazin-7-yl)-5-((((4-(tert-butyl)phenoxy)(((S)-1-(3,3-dimethylcyclobutoxy)-1-oxopropan-2-yl)amino)phosphoryl)oxy)methyl)-2-cyanotetrahydrofuran-3,4-diyl Diacetate], the EC50 in data set [3] (setting [11]) amounted to 39.9 nM; in the data set with SARS-CoV-2 (setting [8]), 95.9 nM; in data set [4] (setting [12]), 30.2 nM; in data set [5] (setting [10]) it was 5.48 nM.

Consider `CC(=O)O[C@H]1[C@@H](OC(C)=O)[C@](C#N)(c2ccc3c(N)ncnn23)O[C@@H]1COP(=O)(N[C@@H](C)C(=O)OCC(C)C)Oc1ccc(C(C)(C)C)cc1` (stereo partly drawn) [Example 137, (2R,3R,4R,5R)-2-(4-aminopyrrolo[2,1-f][1,2,4]triazin-7-yl)-5-((((4-(tert-butyl)phenoxy)(((S)-1-isobutoxy-1-oxopropan-2-yl)amino)phosphoryl)oxy)methyl)-2-cyanotetrahydrofuran-3,4-diyl Diacetate], for which the EC50 in data set [3] (setting [11]) is 31.5 nM; in the data set on SARS-CoV-2 (setting [8]), 67.4 nM; in data set [4] (setting [12]), 22.1 nM; in data set [5] (setting [10]), 4.82 nM.
